Here are results for 5 molecules from patent US9566349B2, “Intestinal peptide targeting ligands” (Rutgers, The State University of New Jersey, priority 2010, dated 2017).

Square brackets hold non-standard residues; d marks the D form. Ends that are not written are not given here. Peptide text beside a SMILES is read from it. Nle = CCCC[C@H](N)C(=O)O

For data set [1] the following is noted: cited from earlier work.
Data set [2] is described as follows: Solubility and aggregation of peptide compared with SEQ ID NO. 1. The class given is physicochemical. The settings on record: Met and Cys replaced by norleucine and serine. The text has this: Another example of such an amino acid sequence is TKWPVDN/eSPNVS (SEQ ID. NO. 6). In comparison with SEQ ID. NO. 1, replacement of the oxidation-prone amino acids (methionine and cysteine) with their biosteric counterparts (norleucine and serine respectively) in SEQ ID. NO. […] The peptide ligands of the instant invention also include variants or homologues of SEQ ID NO: 6, which may be at least 75% identical to SEQ ID NO: 6 or which may contain conservative substitutions of corresponding amino acid residues.

The subject of data set [3] is Caco-2 intestinal epithelial monolayer. Nature of the data set: Transport of FITC-labeled peptide across Caco-2 intestinal epithelial monolayer. The data set is classed as cell-based, human. The settings on record: Caco-2 monolayers, n=3, p<0.05. The text has this: FIG. 2. Illustrates that peptide-labeled #12 (SEQ ID NO. 2) and its sequence-scrambled peptide FITC-12C1 were transported across Caco-2 intestinal epithelial monolayer in the presence and absence of chylomicron lipid-forming micelles.
Fluorescently labeled peptides according to SEQ ID NOS. 1 and 3 were synthesized. The peptide according to SEQ ID NO. […] The peptide according to SEQ ID NO. […] Therefore, the peptide according to SEQ ID NO. 2 aggregate may be viewed as a small nanoparticle displaying some peptides according to SEQ ID NO. 2 in correct orientation (i.e., on the surface not buried inside the nanoparticle). Even with this imperfect display, some increase in chylomicron lipid-dependent translocation across Caco-2 monolayers is still noticeable over a scrambled peptide according to SEQ ID NO. 1 (12C1) (FIG. 2). FITC-12 was 4.6-fold more efficiently transported than the sequence-scrambled control (FIG. 2).
In general terms: Caco-2 cells form a polarised layer with tight junctions and transporters.

What is called LogP is the decadic logarithm of the partition coefficient of the neutral form, usually between octanol and water. Consider `Cc1cc(C2CCCCC2)n(O)c(=O)c1` [Ciclopirox], for which the LogP in data set [1] is recorded as 2.2.
Take `CC(C)CN(C[C@@H](O)[C@H](Cc1ccccc1)NC(=O)O[C@H]1CO[C@H]2OCC[C@H]21)S(=O)(=O)c1ccc(N)cc1` [Darunavir]: the LogP in data set [1] is 1.8.
Consider `C[C@@H]1CCO[C@H]2Cn3cc(C(=O)NCc4ccc(F)cc4F)c(=O)c(O)c3C(=O)N12` [Dolutegravir], for which, in data set [1], the LogP is recorded as 1.0.
On to `CCCC[C@H](NC(=O)[C@H](CC(=O)O)NC(=O)[C@@H](NC(=O)[C@@H]1CCCN1C(=O)[C@H](Cc1c[nH]c2ccccc12)NC(=O)[C@H](CCCCN)NC(=O)[C@@H](N)[C@@H](C)O)C(C)C)C(=O)N[C@@H](CO)C(=O)N1CCC[C@H]1C(=O)N[C@@H](CC(N)=O)C(=O)N[C@H](C(=O)N[C@@H](CO)C(=O)O)C(C)C` [SEQ ID. NO. 6, TKWPVDN/eSPNVS] (H-TKWPVD[Nle]SPNVS-OH; N-terminus and C-terminus assumed), for which the “solubility in comparison with SEQ ID. NO. 1” value in data set [2] is given as “better solubility”.
On to “FITC-12: fluorescently (FITC) labeled peptide #12 (SEQ ID NO. 2) (QDDVQTWQRQPK; also: FITC label, position not given here)”, for which the “transport efficiency relative to sequence-scrambled control (12C1)” value in data set [3] was found to be 4.6 fold.
